Toxic doses and inconclusive results are not listed. How the source made its calls: active means survival T/C of 150% or more; inactive means T/C below 125% in these data.
System: CD2F1 mice, AMSA-resistant P388 leukemia ip, median survival T/C
Experiment: NCI In Vivo Anticancer Drug Screen. Data for tumor model P388 Leukemia resistant to AMSA; NSC 249992 (intraperitoneal) in CD2F1 (CDF1) mice
Details: endpoint: median survival time, vehicle: saline, higher = longer survival
Experimental: The antitumor activity of compounds was measured in mice bearing transplantable tumors. Survival or tumor size were measured and the results are expressed as the measurement made in the treated group (T) divided by the measurement made in the vehicle treated control group (C). The tumor model used in this assay is P388 Leukemia resistant to AMSA; NSC 249992 (intraperitoneal) in CD2F1 (CDF1) mice

Measured: T/C

O=P1(N(CCCl)CCCl)NCCCO1 (centres undefined)
active: dose: 16.2 mg/kg/injection, schedule: Q04DX003 (ip) 196 % of control | dose: 25.9 mg/kg/injection, schedule: Q04DX002 (ip) 220 % of control | dose: 27.0 mg/kg/injection, schedule: Q04DX003 (ip) 240 % of control | dose: 32.4 mg/kg/injection, schedule: Q04DX002 (ip) 243 % of control | dose: 43.2 mg/kg/injection, schedule: Q04DX002 (ip) 333 % of control | dose: 45.0 mg/kg/injection, schedule: Q04DX003 (ip) 348 % of control | dose: 54.0 mg/kg/injection, schedule: Q04DX002 (ip) 305 % of control | dose: 72.0 mg/kg/injection, schedule: Q04DX002 (ip) 407 % of control | dose: 75.0 mg/kg/injection, schedule: Q04DX003 (ip) 348 % of control | dose: 90.0 mg/kg/injection, schedule: Q04DX002 (ip) 416 % of control | dose: 120.0 mg/kg/injection, schedule: Q04DX002 (ip) 416 % of control | dose: 125.0 mg/kg/injection, schedule: Q04DX003 (ip) 348 % of control | dose: 150.0 mg/kg/injection, schedule: Q04DX002 (ip) 416 % of control | dose: 200.0 mg/kg/injection, schedule: Q04DX002 (ip) 164 % of control

Reference: PubChem BioAssay AID324 (DTP/NCI, 2004)
